These results are taken from ChEMBL document CHEMBL1649379, “Synthesis of a novel ester of hydroxytyrosol and α-lipoic acid exhibiting an antiproliferative effect on human colon cancer HT-29 cells” (2011).

Holding throughout (type): functional
Assay [1] has as its system HT-29. The experiment in a line: Growth inhibition of human HT-29 cells at 100 uM after 24 hrs by BrdU-ELISA assay. Conditions: HT-29, 24 h, read-out: GI.
Assay [2] relates to HT-29. The experiment in a line: Growth inhibition of human HT-29 cells at 150 uM after 24 hrs by BrdU-ELISA assay. The conditions noted are these: HT-29, 24 h, read-out: GI. (An ELISA detects its analyte on a solid surface through an enzyme-linked reagent.)
The test system of assay [3] is HT-29. Briefly: Growth inhibition of human HT-29 cells at 300 uM after 24 hrs by BrdU-ELISA assay. The conditions noted are these: HT-29, 24 h, read-out: GI.
Assay [4] relates to HT-29. The experiment in a line: Growth inhibition of human HT-29 cells at 100 uM after 48 hrs by BrdU-ELISA assay. The conditions noted are these: HT-29, 48 h, read-out: GI.
Assay [5] has as its system HT-29. The experiment in a line: Growth inhibition of human HT-29 cells at 150 uM after 48 hrs by BrdU-ELISA assay. The conditions noted are these: HT-29, 48 h, read-out: GI.
For assay [6], the system named is HT-29. Briefly: Growth inhibition of human HT-29 cells at 300 uM after 48 hrs by BrdU-ELISA assay. Conditions: HT-29, 48 h, read-out: GI.
Assay [7] relates to HT-29. The experiment in a line: Induction of cell cycle arrest in human HT-29 cells assessed as accumulation at G0/G1 phase at 100 uM after 24 hrs by flow cytometry (reference value: 61.4+/-1.1%).
Assay [8] deals with HT-29. The experiment in a line: Induction of cell cycle arrest in human HT-29 cells assessed as accumulation at G0/G1 phase at 150 uM after 24 hrs by flow cytometry (reference value: 61.4+/-1.1%).
For assay [9], the system named is HT-29. Briefly: Induction of cell cycle arrest in human HT-29 cells assessed as accumulation at G0/G1 phase at 300 uM after 24 hrs by flow cytometry (reference value: 61.4+/-1.1%). On the technique in general: Flow cytometry measures light scatter and fluorescence of single cells or particles in a stream.
Assay [10] relates to HT-29. The experiment in a line: Induction of cell cycle arrest in human HT-29 cells assessed as accumulation at S phase at 100 uM after 24 hrs by flow cytometry (reference value: 21+/-0.9%).
Assay [11] has as its system HT-29. Briefly: Induction of cell cycle arrest in human HT-29 cells assessed as accumulation at S phase at 150 uM after 24 hrs by flow cytometry (reference value: 21+/-0.9%).
Assay [12] concerns HT-29. Briefly: Induction of cell cycle arrest in human HT-29 cells assessed as accumulation at S phase at 300 uM after 24 hrs by flow cytometry (reference value: 21+/-0.9%).
In assay [13] the test system is HT-29. The experiment in a line: Induction of cell cycle arrest in human HT-29 cells assessed as accumulation at G2/M phase at 100 uM after 24 hrs by flow cytometry (reference value: 17.6+/-1%).
Assay [14] deals with HT-29. Briefly: Induction of cell cycle arrest in human HT-29 cells assessed as accumulation at G2/M phase at 150 uM after 24 hrs by flow cytometry (reference value: 17.6+/-1%).
Assay [15] deals with HT-29. The experiment in a line: Induction of cell cycle arrest in human HT-29 cells assessed as accumulation at G2/M phase at 300 uM after 24 hrs by flow cytometry (reference value: 17.6+/-1%).

Take `OCCc1ccc(O)c(O)c1` [HYDROXYTYROSOL]: the inhibition of growth at 100 µM in assay [1] is 20.7%; in assay [4] it was 17.3%. The inhibition of growth at 150 µM in assay [2] came out at 37.5%; in assay [5] it was 29.3%. In addition, the inhibition of growth at 300 µM was found to be 64.2% in assay [3] and 53.2% in [6]. Besides, the Activity in [7] is reported as 40.5%; in [8], 40.3%; in assay [9], 34.4%; in assay [10] it was 22.5%; in assay [11], 20.3%; in [12], 20.1%. Further, the Activity worked out at 35% in [13], 36.7% in assay [14] and 43.5% in assay [15].
With `O=C(CCCCC1CCSS1)OCCc1ccc(O)c(O)c1` (stereo not given), the inhibition of growth at 100 µM in assay [1] amounted to 33.9%; in assay [4], 45.6%. Moreover, the inhibition of growth at 150 µM in assay [2] worked out at 69.6%; in [5], 70.6%. Also, the inhibition of growth at 300 µM in [3] was found to be 83.9%; in assay [6], 83.6%. Also, the Activity in [7] worked out at 31.3%; in assay [8], 29.3%; in [9], 28.2%; in assay [10], 17.7%; in assay [11], 18.1%; in assay [12], 14%. In addition, the values for the Activity in assay [13], in [14] and in assay [15] were 49.7%, 50.5% and 56.8%, respectively.
Consider `O=C(O)CCCCC1CCSS1` (stereo not drawn) [LIPOIC ACID, ALPHA], for which the results for the inhibition of growth at 100 µM in assay [1] and in assay [4] were 17.8% and 6.5%, respectively. Besides, the inhibition of growth at 150 µM in assay [2] worked out at 25.5%; in assay [5], 18.4%. Besides, the inhibition of growth at 300 µM in [3] came to 24%; in [6], 19.5%. In addition, the Activity in assay [7] is listed as 43.5%; in assay [8], 45.6%; in assay [9], 37.5%; in [10] it was 19.2%; in assay [11], 20.1%; in [12] it was 19.3%. In addition, the Activity is listed as 36.9% in assay [13], 32.1% in assay [14] and 40.3% in assay [15].
